Consider 46 molecules from the Deep4Chem optical property database.

Molecules are shown by their SMILES. “And” between values parts separate entries of the source, which are not always exact repeats. Equal values may be shown once.

This data set in a line: solvent given as SMILES.
Where [1] appears, read: in O=P(c1ccccc1)(c1ccccc1)c1ccccc1Oc1ccccc1P(=O)(c1ccccc1)c1ccccc1.

Turning to `CC1=[N+]2C(=C(c3ccc(C(=C(c4ccccc4)c4ccccc4)c4ccccc4)cc3)c3ccc(/C=C/c4ccc(C(=C(c5ccccc5)c5ccccc5)c5ccccc5)cc4)n3[B-]2(F)F)C=C1`, the emission maximum (in C1CCOC1) is listed as 612 nm.
In turn, `CC(=O)Nc1ccc2ccc3cccc4ccc1c2c34` displayed an emission maximum (in CC#N) of 386 nm, an emission maximum (in CCCCOCCCC) of 385 nm and an emission maximum (in CO) of 383 nm.
`CCCCCCCCCCCCC1(CCCCCCCCCCCC)c2cc(-c3ccc(C=C4C(=O)c5ccccc5C4=O)cc3)ccc2-c2ccc(-c3ccc(C=C4C(=O)c5ccccc5C4=O)cc3)cc21`: the emission maximum turned out to be 531 nm (in C1CCOC1); 566 nm (in CC(C)=O); 463 nm (in CCCCCC); 598 nm (in CS(C)=O); 490 nm (in Cc1ccccc1); 529 nm (in ClC(Cl)Cl).
Molecule `CCCCCCN1C(=O)c2cccc3c(-c4cccs4)ccc(c23)C1=O` had an emission maximum (in ClC(Cl)Cl) of 465 nm.
For the molecule `CCOC(=O)COc1ccc(C(c2c(C)[nH]c3ccccc23)c2c(C)[nH]c3ccccc23)cc1OC`, the emission maximum reads like this: (in C1CCCCC1) 329 nm; (in CC#N) 340 nm; (in CO) 345 nm; (in O) 350 nm.
For the molecule `CCOC(=O)C1=C(C(=O)OCC)C2(c3ccccc3-c3ccccc32)[C@@H](c2ccc(Cl)cc2)C=C2c3cc(OC)c(OC)cc3CCN21`, the emission maximum (in ClCCl) was found to be 445 nm.
For the molecule `CC1=CC(C)=[N+]2C1=Cc1c3ccccc3c(C#Cc3ccsc3)n1[B-]2(F)F`, the emission maximum by setting is: (in CCCCCC) 615 nm; (in CCCCCCCCO) 621 nm; (in CCOC(C)=O) 616 nm; (in CN(C)C=O) 623 nm; (in ClCCl) 628 nm.
Turning to `CN1/C(=C/C=C(/C=C/c2sc3ccccc3[n+]2C)c2ccc(F)cc2)Sc2ccccc21`, the emission maximum by setting is: (in CCO) 674 nm; (in CO) 674 nm; (in CS(C)=O) 681 nm; (in O) 669 nm.
For the setting “in C1COCCO1”, `COC(=O)c1ccc(/C=C2\C=C(c3ccccc3)OC2=O)cc1` displayed an emission maximum of 495 nm.
Turning to `CCc1c(C)[nH]c(C2=[N+]3C(=C(C)c4c(C)c(CC)c(C)n4[B-]3(F)F)c3ccccc32)c1C`, the emission maximum amounted to 656 nm (in C1CCOC1); 652 nm (in CC#N); 636 nm (in CCCCCC); 650 nm (in CO); 646 nm (in Cc1ccccc1); 645 nm (in ClCCl).
As to `CCOc1ccc(/C=C/C=C/C=C/c2ccc([N+](=O)[O-])cc2)cc1`, the emission maximum is on record as 488 nm (in CC1CCCCC1), 740 nm (in CC#N), 541 nm (in Cc1ccccc1) and 694 nm (in ClCCl).
Turning to `FC(F)(F)C(F)(F)C(F)(F)C1=NC2=C(Br)C=C3c4cc(Br)c5nc(C(F)(F)C(F)(F)C(F)(F)F)nc6c(Br)cc(c4c56)=C4C=C(Br)C(=N1)C2C34` (stereo not drawn), under “in C1CCOC1”, the emission maximum amounted to 486 nm.
Under “in CCO”, `Cc1c(C)n2c(COC(=O)c3ccc(F)cc3)c(C)c(=O)n2c1=O` gave an emission maximum of 460 nm.
As to `CN(C)c1ccc(-c2c(/C=C3/C=Cc4ccccc4N3C)c(=O)c2=O)cc1`, the emission maximum came to 427 nm (in C1CCCCC1), 435 nm (in Cc1ccccc1) and 588 nm (in ClCCl).
`CCCCCCc1sc(CCCCCC)c2c3ccsc3c3sccc3c12` had an emission maximum (in ClC(Cl)Cl) of 425 nm.
Consider `CC(C)(C)NC(=O)c1ccc(Br)c2ccc3c4ccc(F)cc4c4cc(F)ccc4c3c12`, for which the emission maximum (in ClCCl) is 394 nm.
For the molecule `B1C=Cc2ccc3ccccc3c2N1`, the emission maximum (in C1CCCCC1) is recorded as 371 nm.
As for `O=C(O)C1=C(C(=O)O)C2=C[C@H]3c4ccccc4[C@]2([Se]1)c1ccccc13`, the emission maximum (in ClCCl) is reported as 507 nm.
Molecule `COc1ccc(-c2cc3c(o2)=CC2=Cc4cc5oc(-c6ccc(OC)cc6)cc5n4[B-](F)(F)[N+]=32)cc1` showed an emission maximum (in ClC(Cl)Cl) of 683 nm.
As for `CC(C)(C)c1ccc2c(c1)c1cc(C(C)(C)C)ccc1n2-c1cc(-n2c3ccc(C(C)(C)C)cc3c3cc(C(C)(C)C)ccc32)c(-n2c3ccc(C(C)(C)C)cc3c3cc(C(C)(C)C)ccc32)c(C#N)c1-n1c2ccc(C(C)(C)C)cc2c2cc(C(C)(C)C)ccc21`, the emission maximum by setting is: (in CCCCCC) 449.25 nm; (in CCO) 484.15 nm; (in Cc1ccccc1) 456 nm; (in ClCCl) 472.48 nm.
As to `Cc1cccc(NC(=O)c2ccc(N(C)C)cc2)c1`, the emission maximum runs as follows: (in C1CCCCC1) 452 nm; (in C1CCOC1) 518 nm; (in CC#N) 502 nm; (in CCOCC) 498 nm.
As to `Cc1ccc2c(c1)C1(c3ccccc3Oc3ccccc31)c1cc(C)ccc1N2c1ccc(-c2ncccn2)cc1`, the emission maximum runs as follows: (in Cc1ccccc1) 454 nm; (in O=P(c1ccccc1)(c1ccccc1)c1ccc2oc3ccc(P(=O)(c4ccccc4)c4ccccc4)cc3c2c1) 458 nm.
`CCOC(=O)C1=C(N)n2c(=O)c3ccccc3c(=O)n2C1c1cccs1` (stereo not drawn) returned an emission maximum (in CS(C)=O) of 439 nm.
On to `CCCCn1c2ccc(C#Cc3cccs3)cc2c2c1c1c3ccc(C#Cc4cccs4)cc3n(CCCC)c1c1c3ccc(C#Cc4cccs4)cc3n(CCCC)c21`, for which the emission maximum (in C1CCOC1) amounted to 430 nm.
In turn, `Cc1c2c(c(C)c3ccccc13)-c1c-2ccc2nc3ccccc3nc12` returned an emission maximum (in ClC(Cl)Cl) of 648 nm.
Consider `O=C1c2ccccc2-c2cnccc21`, for which the emission maximum came out at 516.76 nm (in CC#N) and 464.17 nm (in CCCCCC).
For the molecule `CC1=CC(/C=C/c2ccc(OCCCN=[N+]=[N-])cc2)=[N+]2C1=C(c1ccccc1)c1c(C)cc(C)n1[B-]2(F)F`, where the note is “in CO”, the emission maximum is reported as 578 nm.
On to `CCCCOc1c(OC)cc2cc(OC)c(OCCCC)c3c4c(OCCCC)c(OC)cc5cc(OC)c(OCCCC)c(c1c23)c54`, for which the emission maximum (in ClCCl) amounted to 474 nm.
`COc1cc2c(cc1-c1ccc(N(c3ccccc3)c3ccccc3)cc1)Cc1c3c(c4c(c1-2)-c1cc(OC)c(-c2ccc(N(c5ccccc5)c5ccccc5)cc2)cc1C4)C(=O)N(CCC(C)C)C3=O` registered an emission maximum (in C1CCOC1) of 563 nm.
The same measure, in the same setting: as for `FC(F)(F)c1ccc(/C=C2\C=C(c3ccccc3)C=C2c2ccccc2)cc1`, the figure is 516 nm.
With `O=Cc1c(O)c(-c2nc3ccccc3s2)cc2ccccc12`, the emission maximum runs as follows: (in C1CCOC1) 497 nm; (in CC#N) 505 nm; (in CC(C)=O) 507 nm; (in CCO) 503 nm; (in CCOC(C)=O) 501 nm; (in CN(C)C=O) 538 nm. For the same molecule, the emission maximum reads like this: (in CO) 525 nm; (in Cc1ccccc1) 509 nm; (in ClC(Cl)Cl) 505 nm; (in ClCCl) 505 nm.
For `Cn1c2ccccc2c(=O)c2ccccc21`, the emission maximum is, setting by setting: (in CS(C)=O) 417 nm; (in O) 430 nm.
Regarding `F[B-]1(F)n2c(Oc3ccccc3)c(Cl)c3c2C(=C2C(Br)=C(Cl)C(Oc4ccccc4)=[N+]21)Oc1ccccc1-3`, the emission maximum (in ClCCl) is listed as 492 nm.
In turn, `COc1ccc(-c2nc(-c3cccc(C#N)c3)[nH]c2-c2ccc(OC)cc2)cc1` yielded an emission maximum (in CO) of 478 nm.
Consider `COc1ccccc1C1=[N+]2C(=C(c3ccc(I)cc3)c3ccc(-c4ccccc4OC)n3[B-]2(F)F)C=C1`, for which the emission maximum (in ClC(Cl)Cl) was 598 nm and 597 nm.
Turning to `CC(C)(C)c1ccc2c(c1)c1cc(C(C)(C)C)ccc1n2-c1ccc(-c2nc(-c3ccc(-n4c5ccc(C(C)(C)C)cc5c5cc(C(C)(C)C)ccc54)cc3)nc(-c3ccc(P(=O)(c4ccccc4)c4ccccc4)cc3)n2)cc1`, the emission maximum reads like this: (in C1CCOC1) 501.73 nm; (in CC#N) 543.52 nm; (in CC(C)=O) 525.92 nm; (in CN(C)C=O) 574.19 nm; (in Cc1ccccc1) 474.19 nm; (in ClCCl) 526.57 nm. The emission maximum under setting [1] amounted to 492 nm.
Take `CN(C)CCCN1c2ccccc2Sc2ccc(Cl)cc21`: the emission maximum is given as 451 nm (in CC#N), 449 nm (in CO) and 453 nm (in O).
Turning to `CC1(C)c2ccccc2N(c2c(F)cc(-c3nnc(-c4ccccc4)o3)cc2F)c2ccccc21`, the emission maximum is listed as 490 nm (in Cc1ccccc1) and 495 nm under setting [1].
Regarding `N#Cc1cc(-c2cc(C#N)c(-n3c4ccccc4c4ccccc43)cc2-n2c3ccccc3c3ccccc32)c(-n2c3ccccc3c3ccccc32)cc1-n1c2ccccc2c2ccccc21`, under “in Cc1ccccc1”, the emission maximum came to 453 nm.
As for `Cc1ccc2[nH]c(-c3ccc(-c4ccc(-c5ccc(-c6nc7cc(C)ccc7[nH]6)cc5)cc4)cc3)nc2c1`, for the setting “in CN(C)C=O”, the emission maximum came to 416 nm.
`FC(F)(F)C(F)(F)C(F)(F)C(F)(F)C(F)(F)C(F)(F)CCOc1nnc(Cl)nn1`: the emission maximum is, setting by setting: (in ClCCl) 566 nm; (in OCC(F)(F)F) 555 nm.
The molecule `C=CC(=O)Oc1ccc2cc(C=C)c(=O)oc2c1` showed an emission maximum (in CC#N) of 430 nm.
In turn, `CCn1c(-c2ccc(-c3ccc4c(c3)C(C)(C)c3ccccc3-4)cc2)c(-c2ccc3ccccc3c2)c(-c2ccc3ccccc3c2)c1-c1ccc(-c2ccc3c(c2)C(C)(C)c2ccccc2-3)cc1` displayed an emission maximum (in CCOC(C)=O) of 442 nm.
As for `C1=Cc2ccccc2C(=Cc2ccc(-c3cc(-c4ccc(C=C5c6ccccc6C=Cc6ccccc65)cc4)cc(-c4ccc(C=C5c6ccccc6C=Cc6ccccc65)cc4)c3)cc2)c2ccccc21`, the emission maximum (in C1CCOC1) is on record as 405 nm.
On to `CCCCCCCCN1c2ccc(C#Cc3ccc(F)cc3)cc2Sc2cc(C=O)ccc21`, for which the emission maximum is, setting by setting: (in C1CCOC1) 513 nm; (in CC#N) 538 nm; (in CCCCCC) 488 nm; (in CO) 466 nm; (in CS(C)=O) 542 nm; (in Cc1ccccc1) 507 nm. Moreover, the emission maximum (in ClC(Cl)Cl) came to 539 nm.
For the molecule `CCN(CC)c1ccc2cc(C#N)/c(=N\C(=O)c3ccco3)oc2c1`, the emission maximum was 470 nm (in CCO) and 460 nm (in ClCCl).
